Test systems include Escherichia coli C600; Candida krusei ATCC 6258; Enterococcus faecalis VR; Enterococcus faecalis; Pseudomonas aeruginosa; Escherichia coli D31; Escherichia coli SBS 363; Klebsiella pneumoniae; Staphylococcus aureus; Acinetobacter baumannii; Enterococcus sp.; Escherichia coli ESBL.
Holding throughout (assay): ≥ marks a high value that may be exact or a test limit, other limits are often not marked, values filed in µg/mL are converted to µM
The test system of assay [1] is Mycobacterium tuberculosis CAS3.
Assay [2] relates to Mycobacterium tuberculosis H37Rv.
The subject of assay [3] is Mycobacterium tuberculosis WXY.
Assay [4] concerns Escherichia coli CIP 54.8T.
Assay [5] deals with Bacillus subtilis VKM B-501.
The subject of assay [6] is Staphylococcus aureus 209P.
Assay [7] has as its system Escherichia coli ATCC 25922.
In assay [8] the test system is Pseudomonas aeruginosa ATCC 27853.
In assay [9] the test system is Listeria monocytogenes EGD.
Assay [10] has as its system Staphylococcus aureus ATCC 25923.
Assay [11] concerns Candida tropicalis ATCC 20240.
For assay [12], the system named is Candida parapsilosis ATCC 20224.
For assay [13], the system named is Candida albicans ATCC 2048.
In assay [14] the test system is Candida glabrata ATCC 90525.
Assay [15] relates to Legionella pneumophila Lens.
Assay [16] has as its system Staphylococcus aureus ATCC 29213.
The test system of assay [17] is Staphylococcus aureus ATCC 43300.
For assay [18], the system named is Escherichia coli ATCC BAA-2523.
The subject of assay [19] is Enterobacter cloacae beta-12.
For assay [20], the system named is Pseudomonas aeruginosa PA14.
In assay [21] the test system is Staphylococcus epidermidis.

The source of these data is DBAASP.

In brackets after ≈: the same amount, converted by molar mass.

In general, MIC refers to the smallest concentration in the dilution series that meets the test's criterion for growth inhibition. Low readings indicate greater potency, high ones weaker potency. For `CC(C)C[C@H](NC(=O)[C@H](CC(C)C)NC(=O)[C@H](CCCCN)NC(=O)[C@H](CCCCN)NC(=O)[C@@H](NC(=O)[C@H](C)N)C(C)C)C(=O)N[C@@H](C)C(=O)N[C@@H](C)C(=O)N[C@@H](C)C(=O)N[C@@H](CO)C(=O)N[C@@H](C)C(=O)N[C@@H](C)C(=O)N[C@@H](C)C(=O)N[C@@H](CCCCN)C(=O)N[C@@H](CCCCN)C(=O)O` [AVKKLLAAASAAAKK], the MIC in assay [1], in [2] and in [3] was no less than 139 µM throughout.

As for `CC[C@H](C)[C@H](NC(=O)[C@H](Cc1cnc[nH]1)NC(=O)[C@H](Cc1cnc[nH]1)NC(=O)[C@H](Cc1ccccc1)NC(=O)[C@@H](NC(=O)[C@H](CCCCN)NC(=O)[C@@H](NC(=O)[C@@H](N)Cc1ccccc1)[C@@H](C)CC)[C@@H](C)CC)C(=O)N[C@@H](Cc1ccccc1)C(=O)N[C@@H](CCCCN)C(=O)NCC(=O)N[C@@H](CC(N)=O)C(=O)N1CCC[C@H]1C(=O)N[C@@H](CCCCN)C(=O)N[C@@H](Cc1ccccc1)C(=O)N[C@@H](CO)C(=O)N[C@H](C(=O)N[C@H](C(=O)N[C@@H](CCCCN)C(=O)O)[C@@H](C)CC)[C@@H](C)CC` [FIKIFHHIFKGNPKFSIIK], the MIC in assay [4] is no less than 150 µM.

As for `CSCC[C@H](NC(=O)[C@H](CCCCN)NC(=O)CN)C(=O)N[C@@H](CCCCN)C(=O)N[C@@H](CCC(=O)O)C(=O)N[C@@H](Cc1ccc(O)cc1)C(=O)N[C@@H](Cc1ccccc1)C(=O)N[C@@H](CCCCN)C(=O)N[C@@H](CCCCN)C(=O)N[C@@H](Cc1ccccc1)C(=O)NCC(=O)N[C@@H](C)C(=O)N[C@@H](CO)C(=O)N[C@@H](Cc1ccccc1)C(=O)N[C@@H](CCCCN)C(=O)N[C@@H](CCCN=C(N)N)C(=O)N[C@@H](CCCN=C(N)N)C(=O)N[C@@H](Cc1ccccc1)C(=O)N[C@@H](C)C(=O)N[C@@H](CC(N)=O)C(=O)N[C@@H](CC(C)C)C(=O)N[C@@H](CCCCN)C(=O)N[C@@H](CCCCN)C(=O)N[C@@H](CCCN=C(N)N)C(=O)N[C@@H](CC(C)C)C(N)=O` [GKMKEYFKKFGASFKRRFANLKKRL], the minimum inhibitory concentration (MIC) was 0.7 µM (≈ 2.16 µg/mL) in assay [5], 1.5 µM (≈ 4.62 µg/mL) against Escherichia coli C600 and 3 µM (≈ 9.24 µg/mL) in assay [6].

On to `CC[C@H](C)[C@H](NC(=O)[C@H](C)NC(=O)CNC(=O)[C@H](CCCCN)NC(=O)[C@@H](NC(=O)[C@H](CC(C)C)NC(=O)[C@H](C)NC(=O)[C@H](CC(C)C)NC(=O)[C@@H](NC(=O)[C@@H](NC(=O)[C@H](Cc1ccc(O)cc1)NC(=O)[C@@H](NC(=O)[C@H](Cc1ccccc1)NC(=O)[C@H](CCCCN)NC(=O)[C@H](CCCCN)NC(=O)[C@@H](N)CCCCN)[C@@H](C)CC)[C@@H](C)CC)C(C)C)[C@@H](C)CC)C(=O)N[C@H](C(=O)N[C@@H](CCCCN)C(=O)N[C@@H](CCCCN)C(=O)NCC(N)=O)[C@@H](C)CC` [KKKFIYIVLALIKGAIIKKG], for which the minimal inhibitory concentration (MIC) in assay [7] was 32 µM (≈ 71.8 µg/mL); in assay [8] it was 64 µM (≈ 144 µg/mL); in [9], no less than 32 µM; in [10] it was 64 µM (≈ 144 µg/mL).

Take `CC(C)C[C@H](NC(=O)[C@H](C)NC(=O)[C@H](CC(C)C)NC(=O)[C@H](CC(=O)O)NC(=O)[C@H](CCC(N)=O)NC(=O)[C@@H](N)CC(C)C)C(=O)N[C@@H](CCC(N)=O)C(=O)NCC(=O)N[C@@H](C)C(=O)N[C@@H](CCCCN)C(=O)N[C@@H](CCC(=O)O)C(=O)N[C@@H](CCCN=C(N)N)C(=O)N[C@@H](C)C(=O)N[C@@H](Cc1cnc[nH]1)C(=O)N[C@@H](CCC(N)=O)C(=O)N[C@@H](CCC(N)=O)C(=O)O` [LQDLALQGAKERAHQQ]: the MIC in assay [11] is no less than 410 µM; in [12], no less than 320 µM; with Candida krusei ATCC 6258, no less than 380 µM; in assay [13] it was no less than 380 µM; in assay [14], no less than 280 µM.

For `CC[C@H](C)[C@H](NC(=O)[C@H](CC(C)C)NC(=O)[C@H](CCCCN)NC(=O)[C@H](CCCCN)NC(=O)[C@@H](NC(=O)[C@@H](NC(=O)[C@H](CCC(=O)O)NC(=O)[C@@H](NC(=O)[C@@H](NC(=O)[C@H](CCCCN)NC(=O)[C@H](C)NC(=O)[C@@H](NC(=O)[C@@H](NC(=O)[C@H](CC(=O)O)NC(=O)[C@H](C)NC(=O)[C@@H](N)CCSC)C(C)C)[C@@H](C)CC)[C@@H](C)CC)C(C)C)[C@@H](C)CC)C(C)C)C(=O)N[C@@H](CC(=O)O)C(=O)N[C@@H](CCC(N)=O)C(=O)N[C@@H](Cc1ccccc1)C(=O)N[C@H](C(=O)N[C@@H](CCC(N)=O)C(=O)N[C@@H](CCCCN)C(=O)O)[C@@H](C)O` [MADVIAKIVEIVKKLIDQFTQK], the minimum inhibitory concentration (MIC) in assay [15] worked out at 0.62 µM (≈ 1.57 µg/mL).

Regarding `CC(C)C[C@H](NC(=O)[C@@H](N)CCC(N)=O)C(=O)NCC(=O)N[C@@H](CCCCN)C(=O)N[C@@H](CCCCN)C(=O)N[C@@H](CCCCN)C(=O)N[C@@H](Cc1cnc[nH]1)C(=O)N[C@@H](CCCN=C(N)N)C(=O)N[C@@H](CCCN=C(N)N)C(=O)N[C@@H](CCCN=C(N)N)C(=O)N1CCC[C@H]1C(=O)N[C@@H](CO)C(=O)N[C@@H](CCCCN)C(=O)N[C@@H](CCCCN)C(=O)N[C@@H](CCCCN)C(=O)N[C@@H](CCCN=C(N)N)C(=O)N[C@@H](Cc1cnc[nH]1)C(=O)N[C@@H](Cc1c[nH]c2ccccc12)C(=O)O` [QLGKKKHRRRPSKKKRHW], the MIC in the assay on Enterococcus faecalis VR is no less than 128 µM; in [16], 128 µM (≈ 301 µg/mL); in assay [17] it was 128 µM (≈ 301 µg/mL); against Enterococcus faecalis, no less than 128 µM; in assay [7], greater than 128 µM; in [8] it was greater than 128 µM. For the same compound, the values for the minimum inhibitory concentration (MIC) (against Pseudomonas aeruginosa; in assay [18]) were greater than 128 µM and no less than 128 µM, respectively.

`CC[C@H](C)[C@H](NC(=O)[C@H](CC(=O)O)NC(=O)[C@H](CC(=O)O)NC(=O)[C@H](CC(N)=O)NC(=O)CNC(=O)[C@H](CO)NC(=O)[C@H](Cc1ccccc1)NC(=O)[C@H](CC(=O)O)NC(=O)[C@@H](NC(=O)CNC(=O)[C@@H](N)C(C)C)[C@@H](C)O)C(=O)N[C@@H](CO)C(=O)N[C@@H](CC(=O)O)C(=O)N[C@H](C(=O)N[C@@H](CCC(N)=O)C(=O)N[C@@H](CCCCN)C(=O)O)C(C)C` [VGTDFSGNDDISDVQK]: the minimal inhibitory concentration (MIC) was found to be 2.3 µM (≈ 3.9 µg/mL) in assay [19]; 4.6 µM (≈ 7.81 µg/mL) with Escherichia coli D31; 1.15 µM (≈ 1.95 µg/mL) in [8]; 4.6 µM (≈ 7.81 µg/mL) in assay [20]; 4.6 µM (≈ 7.81 µg/mL) with Escherichia coli SBS 363.

Take `CC(C)C[C@H](NC(=O)CNC(=O)[C@H](CCCCN)NC(=O)[C@@H](NC(=O)[C@H](CCCCN)NC(=O)[C@H](CCCCN)NC(=O)[C@@H](NC(=O)[C@@H](NC(=O)[C@H](CCCCN)NC(=O)[C@@H](NC(=O)[C@H](CCCCN)NC(=O)CNC(=O)[C@H](CCCN=C(N)N)NC(=O)[C@H](Cc1ccc(O)cc1)NC(=O)[C@H](CC(C)C)NC(=O)[C@H](CCCCN)NC(=O)CNC(=O)[C@H](Cc1ccccc1)NC(=O)[C@@H](N)Cc1c[nH]c2ccccc12)[C@@H](C)O)C(C)C)C(C)C)C(C)C)C(=O)N[C@@H](CC(C)C)C(=O)N[C@@H](CCCCN)C(=O)NCC(=O)O` [WFGKLYRGKTKVVKKVKGLLKG]: the minimum inhibitory concentration (MIC) worked out at 4.93 µM (≈ 12.5 µg/mL) with Klebsiella pneumoniae; 4.93 µM (≈ 12.5 µg/mL) in the assay with Pseudomonas aeruginosa; 9.87 µM (≈ 25 µg/mL) in assay [21]; 9.87 µM (≈ 25 µg/mL) against Staphylococcus aureus; 2.47 µM (≈ 6.25 µg/mL) against Acinetobacter baumannii; 9.87 µM (≈ 25 µg/mL) against Enterococcus sp.. In addition, the MIC against Escherichia coli ESBL was determined as 2.47 µM (≈ 6.25 µg/mL).
